Key:
Type in all cases: in vivo
rat Pdx1 = experiment: qPCR of explanted capsules, rat islet function/viability marker; conditions: explanted at approximately 430 (amorphous) or 460 (crystalline) days post-transplant
From the text: (§1) Total RNA was isolated from fibrosed spheres (with adhered tissue and immune overgrowth, if present), liquid nitrogen snap-frozen immediately following excision, using TRIzol (Invitrogen, Carlsbad, Calif.) according to the manufacturer's instructions. In addition, to help ensure complete tissue disruption, we also employed strong mechanical disruption with a Polytron homogenizer. Thus, gene expression signatures shown throughout are proportional and representative of the entire cell population present on and/or around retrieved materials. […] Mouse (5′-[…]-3′ (SEQ. ID. No.:1); reverse: 5′-CGGGTTCCGCTGTGTAAG-3′ (SEQ. ID. No.:2)) and rat (5′-CTCTCGTGCCATGTGAACC-3′ (SEQ. ID. No.:3); reverse: 5′-[…]-3′ (SEQ. ID. No.:4)) Pdx1 primers were designed using Primer Express software (Applied Biosystems, Carlsbad, Calif., USA) and evaluated using LaserGene software (DNAStar, Madison, Wis., USA) to ensure species rat (encapsulated islet) or mouse (host)-specificity, and normalized to mouse (5′-[…]-3′ (SEQ. ID. No.:5); reverse: 5′-[…]-3′ (SEQ. ID. No.:6)) and rat (5′-[…]-3′ (SEQ. ID. No.:7); reverse: 5′-[…]-3′ (SEQ. ID. No.:8)) Beta-actin, respectively. […] Results were analyzed using the comparative CT (ΔΔCT) method as described by the manufacturer. […]

C57BL/6 mice = experiment: Naked GW2580 crystals co-injected SC with polystyrene or glass spheres, 2 weeks
Method: Naked crystals of GW2580 or saline-only (no drug control) were delivered intraperitoneally along with 500 μm alginate spheres for 2 weeks to C57BL/6 mice. […] Brightfield and fluorescence imaging was used to emphasize the respective presence or lack of fibrotic overgrowth on retrieved alginate spheres from either saline (control) or crystalline GW2580 treatment groups (FIG. 17C). […] GW2580 crystal testing (at doses of 0.5 and 5 mg/SC site) was also extended into the SC implant space with other immunogenic materials, ceramic glass (GL) and polymer polystyrene (PS). […] Retrieved materials where fixed overnight using 4% paraformaldehyde at 4° C. After fixation, alginate sphere or retrieved tissue samples were washed using 70% alcohol. The materials where then mixed with 4 degrees calcium-cooled Histogel (VWR, CA #60872-486). After the molds hardened, the blocks were processed for paraffin embedding, sectioning and staining according to standard histological methods. Single-cell suspensions of freshly excised tissues were prepared using a gentle MACS Dissociator (Miltenyi Biotec, Auburn, Calif.) according to the manufacturer's protocol. Single-cell suspensions were prepared in a passive PEB dissociation buffer (1×PBS, pH 7.2, 0.5% BSA, and 2 mM EDTA) and suspensions were passed through 70 μm filters (Cat. #22363548, Fisher Scientific, Pittsburgh, Pa.). This process removed the majority of cells adhered to the surface (>90%). All tissue and material sample-derived, single-cell populations were then subjected to red blood cell lysis with 5 ml of 1×RBC lysis buffer (Cat. #00-4333, eBioscience, San Diego, Calif., USA) for 5 min at 4° C. The reaction was terminated by the addition of 20 ml of sterile 1×PBS. The cells remaining were centrifuged at 300-400 g at 4° C. and resuspended in a minimal volume (˜50 μl) of eBioscience Staining Buffer (cat. #00-4222) for antibody incubation. All samples were then co-stained in the dark for 25 min at 4° C. with two of the fluorescently tagged monoclonal antibodies specific for the cell markers CD68 (1 μl (0.5 μg) per sample; CD68-Alexa647, Clone FA-11, Cat. #11-5931, BioLegend), Ly-6G (Gr-1) (1 μl (0.5 μg) per sample; Ly-6G-Alexa-647, Clone RB6-8C5, Cat. #108418, BioLegend), CD11b (1 μl (0.2 μg) per sample; or CD11b-Alexa-488, Clone M1/70, Cat. #101217, BioLegend). For alpha smooth muscle actin (fibrosis) analysis, additional cell aliquots were also fixed in 1% paraformaldehyde and permeabilized with 0.1% triton X-100 before being stained with Cy3-conjugated anti-mouse αSM actin antibody (1:100) (Sigma Aldrich, St. Louis, Mo.). Two ml of eBioscience Flow Cytometry Staining Buffer (cat. #00-4222, eBioscience) was then added, and the samples were centrifuged at 400-500 g for 5 min at 4° C. […]

[1] = system: host (mouse) alpha smooth muscle actin (αSMact); experiment: qPCR of explanted capsules, host fibrosis marker; conditions: explanted at approximately 430 (amorphous) or 460 (crystalline) days post-transplant
From the text: as §1

## COc1ccc(COc2ccc(Cc3cnc(N)nc3N)cc2OC)cc1 [GW2580, 5-[[3-Methoxy-4-[(4-methoxyphenyl)methoxy]phenyl]methyl]-2,4-pyrimidinediamine]
Rat Pdx1
  Pdx1 expression, crystal versus amorphous capsules: approximately 30 fold
C57BL/6 mice; SC-implanted PS and GL 0.5 mm spheres, 2 weeks
  responding macrophages (FACS): significant reductions in responding macrophages
C57BL/6 mice; all implant groups, 2 weeks
  drug extracted from nearby tissue: large quantities of remaining drug
C57BL/6 mice; ceramic glass (GL) spheres, SC, no histology
  anti-fibrotic effect: anti-fibrotic effects were also observed
C57BL/6 mice; polystyrene (PS) spheres, SC, 0.5 and 5 mg/SC site, 2 weeks
  anti-fibrotic effect (H&E and Masson's Trichrome): significant anti-fibrotic effects
[1]
  lower αSMact expression, crystal versus amorphous capsules: 74%
